The text below walks through data of patent US7314861B2, “Melanin-concentrating hormone analogs” (priority 2001, dated 2008).

The target in test [1] is T1, human MCH-1R (Homo sapiens, UniProt Q99705). Nature of the test: Aequorin bioluminescence functional assay, MCH-1R. The following applies: for MCH-1R Activation %: % Activation at 10 μM, aequorin functional assay.
Description: (§1) The aequorin bioluminescence assay can be used to measure the activity of G protein-coupled receptors that couple through the Gα protein subunit family consisting of Gq and G11. Such coupling leads to phospholipase C activation, intracellular calcium mobilization and protein kinase C activation.
(§2) Following approximately 40 hours of expression the apo-aequorin in the cells was charged for 4 hours with coelenterazine (10 μM) under reducing conditions (300 μM reduced glutathione) in ECB buffer (140 mM NaCl, 20 mM KCl, 20 mM HEPES-NaOH [pH=7.4], 5 mM glucose, 1 mM MgCl2, 1 mM CaCl2, 0.1 mg/ml bovine serum albumin).
(§3) The cells were harvested, washed once in ECB medium and resuspended to 500,000 cells/ml. 100 μl of cell suspension (corresponding to 5×10^4 cells) was then injected into the test plate containing MCH or MCH analogs, and the integrated light emission was recorded over 30 seconds, in 0.5 second units. 20 μL of lysis buffer (0.1% final Triton X-100 concentration) was then injected and the integrated light emission recorded over 10 seconds, in 0.5 second units. The “fractional response” values for each well were calculated by taking the ratio of the integrated response to the initial challenge to the total integrated luminescence including the Triton X-100 lysis response.
For another test, the target named is human MCH-R2 (Homo sapiens, UniProt Q969V1). Nature of the test: Aequorin bioluminescence functional assay, MCH-2R. The following applies: for EC50: MCH-2R EC50 (nM); for EC50 / MCH-2R Activation %: aequorin functional assay; for MCH-2R Activation %: % Activation at 10 μM; for selective activity at MCH-2R over MCH-1R: greater binding and/or activation at MCH-2R than at MCH-1R.
Sequence of human MCH-R2 (Q969V1 whole entry): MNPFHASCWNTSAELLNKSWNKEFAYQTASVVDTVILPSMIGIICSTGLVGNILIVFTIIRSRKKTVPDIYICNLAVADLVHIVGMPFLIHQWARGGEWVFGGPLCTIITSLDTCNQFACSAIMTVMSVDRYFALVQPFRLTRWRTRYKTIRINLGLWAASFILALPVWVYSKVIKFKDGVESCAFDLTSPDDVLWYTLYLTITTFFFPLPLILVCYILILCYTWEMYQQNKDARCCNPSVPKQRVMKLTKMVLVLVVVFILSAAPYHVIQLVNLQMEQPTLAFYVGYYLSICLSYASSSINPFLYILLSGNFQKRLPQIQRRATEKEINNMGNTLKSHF

Test [2] concerns the target T1, human MCH-1R. Nature of the test: Radiolabeled MCH-R binding assay (SPA based), MCH-1R.
Description: (§4) Cell membranes were prepared on ice. Each T-75 flask was rinsed twice with 10 ml of Enzyme-free Cell Dissociation Buffer (Specialty Media, Lavallette, N.J.), and the cell monolayer was detached in an additional 10 ml of Enzyme-free Cell Dissociation Buffer by incubation at room temperature for 10 minutes. Dissociated cells were centrifuged (500×g for 10 minutes at 4° C.), resuspended in 5 ml homogenization buffer (10 mM Tris-HCl, pH 7.4, 0.01 mM Pefabloc, 10 μM phosphoramidon, 40 μg/ml bacitracin) and then homogenized using a glass homogenizer (10-15 strokes). The homogenate was centrifuged for 10 minutes (1,000×g at 4° C.). The resulting supernatant was then centrifuged at 38,700×g for 15 minutes at 4° C. Pelleted membranes were resuspended (passed through 25 gauge needle 5 times), snap-frozen on liquid nitrogen, and stored at −80° C. until use.
(§5) For the SPA-based assay, WGA-PVT beads (NEN Life Sciences Products) were resuspended in Dulbecco's PBS with calcium and magnesium (500 mg beads in 4 ml PBS). […] The suspension was mixed gently for 20 minutes, 12.3 ml of assay buffer and protease inhibitors were added (final concentration given): 2 μg/ml leupeptin, 10 μM phosphoramidon, 40 μg/ml bacitracin, 5 μg/ml aprotinin, 0.1 mM Pefabloc.
(§6) Coated beads were kept on ice until use. […] Binding reactions were allowed to proceed at room temperature for 3 hours. Quantitation was performed by scintillation counting (TopCount device).
In another test the target is human MCH-2R (Homo sapiens, UniProt Q969V1). Kind of test: Radiolabeled MCH-R binding assay (SPA based), MCH-2R. The following applies: MCH-2R IC50 (nM).
Sequence of human MCH-2R (Q969V1 whole entry): as above

pEC50, pIC50: −log10 of the molar value. Where a SMILES comes first, the peptide text is derived from it. Bridges are numbered along the chain shown (N, C = ends). [ ]: non-standard residue; d: D form. Arg(NO2) = N=C(NCCC[C@H](N)C(=O)O)N[N+](=O)[O-] Bounds are passed on as bounds.

T1 sequence (Q99705 whole entry): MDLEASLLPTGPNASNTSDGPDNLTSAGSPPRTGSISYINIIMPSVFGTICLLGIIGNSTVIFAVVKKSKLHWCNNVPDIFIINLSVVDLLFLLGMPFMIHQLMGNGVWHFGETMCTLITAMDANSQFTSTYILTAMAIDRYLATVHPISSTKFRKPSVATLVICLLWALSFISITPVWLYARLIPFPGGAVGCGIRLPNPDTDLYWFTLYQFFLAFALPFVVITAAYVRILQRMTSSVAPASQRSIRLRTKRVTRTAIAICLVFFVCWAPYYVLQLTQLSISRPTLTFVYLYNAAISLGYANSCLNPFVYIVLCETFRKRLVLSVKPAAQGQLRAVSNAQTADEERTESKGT
Description for human MCH-2R: as §4, §5, §6
Description for human MCH-R2: as §1, §2, §3

As usually defined, the EC50 is the midpoint of the concentration-response curve. A lower EC50 goes with higher potency in that assay. One may read the pIC50 as −log10 of the IC50, conventionally taken in molar units. The low end stands for a high IC50, the high end for a low IC50. As to `CSCC[C@@H]1NC(=O)[C@@H](NC(=O)[C@H](CCCNC(=N)N)NC(=O)[C@H](CC(C)C)NC(=O)[C@H](CCSC)NC(=O)[C@H](CC(=O)O)NC(=O)[C@H](Cc2ccccc2)NC(=O)[C@@H](N)CC(=O)O)CSSC[C@@H](C(=O)N[C@@H](Cc2c[nH]c3ccccc23)C(=O)N[C@@H](CCC(N)=O)C(=O)N[C@H](C(=O)O)C(C)C)NC(=O)[C@@H]2CCCN2C(=O)[C@H](C)NC(=O)[C@H](Cc2ccc(O)cc2)NC(=O)[C@H](C(C)C)NC(=O)[C@H](CCCNC(=N)N)NC(=O)CNC(=O)[C@H](CC(C)C)NC1=O` [compound 52] (H-DFDMLRCMLGRVYAPCWQV-OH; disulfide 7-16; N-terminus and C-terminus assumed), the “MCH-1R Activation %” value on human MCH-1R [1] (Table 3) worked out at 97%. Also, at human MCH-R2 (Table 3), the concentration giving a half-maximal response (EC50) worked out at 187 nM and the “MCH-2R Activation %” value is recorded as 81%. On human MCH-1R [2], the pIC50 was 8.85.

By IC50 is commonly meant the concentration at which inhibition is half-maximal. Low readings indicate higher potency, high ones lower potency. For `CSCC[C@@H]1NC(=O)[C@@H](NC(=O)[C@H](CCCNC(=N)N)NC(=O)[C@H](CC(C)C)NC(=O)[C@H](CCSC)NC(=O)[C@H](CC(=O)O)NC(=O)[C@H](Cc2ccccc2)NC(=O)[C@@H](N)CC(=O)O)CSSC[C@@H](C(=O)N[C@@H](Cc2c[nH]c3ccccc23)C(=O)N[C@@H](CCC(N)=O)C(=O)N[C@H](C(=O)O)C(C)C)NC(=O)[C@@H]2CCCN2C(=O)[C@H](CCCNC(=N)N)NC(=O)[C@H](Cc2ccc(O)cc2)NC(=O)[C@H](C(C)C)NC(=O)[C@H](CCCNC(=N)N)NC(=O)CNC(=O)[C@H](C)NC1=O` [compound 48] (H-DFDMLRCMAGRVYRPCWQV-OH; disulfide 7-16; N-terminus and C-terminus assumed), on human MCH-1R [1] (Table 3), the “MCH-1R Activation %” value was 96%. The “MCH-2R Activation %” value at human MCH-R2 (Table 3) came to 92%. On human MCH-1R [2], the pIC50 was 9.05. On human MCH-2R (Table 3), the IC50 turned out to be 9.5 nM.

A word on the pEC50: it is the EC50 on a negative log10 scale, so that one unit is a factor of ten. Low values mean a large EC50, high ones a small EC50. In turn, `CSCC[C@@H]1NC(=O)[C@@H](NC(=O)[C@@H](N)CCCNC(=N)N)CSSC[C@@H](C(N)=O)NC(=O)[C@@H]2CCCN2C(=O)[C@H](CCCNC(=N)N)NC(=O)[C@H](Cc2ccc(O)cc2)NC(=O)[C@H](C(C)C)NC(=O)[C@H](CCCNC(=N)N)NC(=O)CNC(=O)[C@H](CC(C)C)NC1=O` [compound 39] had a negative logarithm of the EC50 (pEC50) at human MCH-1R [1] of 7.85. Further, at human MCH-1R [1] (Table 2), the “MCH-1R Activation %” value amounted to 106%. Moreover, on human MCH-R2 (Table 2), a half-maximal response (EC50) required 11.6 nM and the “MCH-2R Activation %” value is listed as 109%. At human MCH-1R [2], this compound gave a pIC50 of 9.89. Besides, the IC50 on human MCH-2R (Table 2) stood at 11 nM.

As to `CSCC[C@@H]1NC(=O)[C@@H](NC(=O)[C@H](CCCNC(=N)N)NC(=O)[C@H](CC(C)C)NC(=O)[C@H](CCSC)NC(=O)[C@H](CC(=O)O)NC(=O)[C@H](Cc2ccccc2)NC(=O)[C@@H](N)CC(=O)O)CSSC[C@@H](C(=O)N[C@@H](Cc2ccc(O)cc2)C(=O)N[C@@H](CCC(N)=O)C(=O)N[C@H](C(=O)O)C(C)C)NC(=O)[C@@H]2CCCN2C(=O)[C@H](CCCNC(=N)N)NC(=O)[C@H](Cc2ccccc2)NC(=O)[C@H](C(C)C)NC(=O)[C@H](CCCNC(=N)N)NC(=O)CNC(=O)[C@H](CC(C)C)NC1=O` [compound 57] (H-DFDMLRCMLGRVFRPCYQV-OH; disulfide 7-16; N-terminus and C-terminus assumed), at human MCH-1R [1] (Table 3), the “MCH-1R Activation %” value was 97%. For the same compound, at human MCH-R2 (Table 3), the concentration giving a half-maximal response (EC50) was determined as 1.5 nM and the “MCH-2R Activation %” value worked out at 92%. The compound further showed a negative logarithm of the IC50 (pIC50) on human MCH-1R [2] of 9.22.

With `CSCC[C@@H]1NC(=O)[C@@H](NC(=O)[C@H](CCCNC(=N)N)NC(C)=O)CSSC[C@@H](C(N)=O)NC(=O)[C@@H]2CCCN2C(=O)[C@H](CCCNC(=N)N)NC(=O)[C@H](Cc2ccc(O)cc2)NC(=O)[C@H](C(C)C)NC(=O)[C@H](CCCNC(=N)N[N+](=O)[O-])NC(=O)[C@@H](C)NC(=O)[C@H](CC(C)C)NC1=O` [compound 37] (Ac-RCML[dA][Arg(NO2)]VYRPC-NH2; disulfide 2-11), on human MCH-1R [1], the pEC50 was less than 5.00. Also, the “MCH-1R Activation %” value on human MCH-1R [1] (Table 1) turned out to be 0.1%. Moreover, the “MCH-2R Activation %” value on human MCH-R2 (Table 1) is on record as 34%. For the same compound, the negative-log IC50 (pIC50) at human MCH-1R [2] is less than 6.00.

For `CC(=O)N[C@@H](CCCNC(=N)N)C(=O)N[C@H]1CSSC[C@@H](C(N)=O)NC(=O)[C@@H]2CCCN2C(=O)[C@H](CCCNC(=N)N)NC(=O)[C@H](Cc2ccc(O)cc2)NC(=O)[C@H](C(C)C)NC(=O)[C@H](CCCNC(=N)N)NC(=O)CNC(=O)[C@H](CC(C)C)NC(=O)[C@H](C)NC1=O` [compound 4] (Ac-RCALGRVYRPC-NH2; disulfide 2-11), the “MCH-1R Activation %” value at human MCH-1R [1] (Table 1) is on record as 42%. It took 12 nM to reach a half-maximal effect at human MCH-R2 (Table 1, 293-AEQ17 cells) (EC50). For the same compound, at human MCH-R2 (Table 1), the “MCH-2R Activation %” value worked out at 104%. In addition, the “selective activity at MCH-2R over MCH-1R” value on human MCH-R2 is reported as “selectively active”. On human MCH-1R [2], this compound had a pIC50 of 7.82.

As to `CSCC[C@H](NC(=O)[C@H](C)NC(=O)[C@H](Cc1ccccc1)NC(=O)[C@@H](N)CC(=O)O)C(=O)N[C@@H](CC(C)C)C(=O)N[C@@H](CCCNC(=N)N)C(=O)N[C@H]1CSSC[C@@H](C(=O)N[C@@H](Cc2c[nH]c3ccccc23)C(=O)N[C@@H](CCC(N)=O)C(=O)N[C@H](C(=O)O)C(C)C)NC(=O)[C@@H]2CCCN2C(=O)[C@H](CCCNC(=N)N)NC(=O)[C@H](Cc2ccc(O)cc2)NC(=O)[C@H](C(C)C)NC(=O)[C@H](CCCNC(=N)N)NC(=O)CNC(=O)[C@H](CC(C)C)NC(=O)[C@H](CCSC)NC1=O` [compound 43] (H-DFAMLRCMLGRVYRPCWQV-OH; disulfide 7-16; N-terminus and C-terminus assumed), the “MCH-1R Activation %” value at human MCH-1R [1] (Table 3) amounted to 97%. For the same compound, the “MCH-2R Activation %” value on human MCH-R2 (Table 3) is reported as 95%. Further, the pIC50 at human MCH-1R [2] is 9.30.

Compound `CSCC[C@@H]1NC(=O)[C@@H](NC(=O)[C@H](CCCNC(=N)N)NC(C)=O)CSSC[C@@H](C(N)=O)NC(=O)[C@@H]2CCCN2C(=O)[C@H](CCCNC(=N)N)NC(=O)[C@H](Cc2ccc(O)cc2)NC(=O)[C@H](C(C)C)NC(=O)[C@H](C)NC(=O)CNC(=O)[C@H](CC(C)C)NC1=O` [compound 23] (Ac-RCMLGAVYRPC-NH2; disulfide 2-11) showed a negative-log EC50 (pEC50) on human MCH-1R [1] of less than 5.00. The EC50 on human MCH-R2 (Table 1, 293-AEQ17 cells) was more than 1000 nM. Also, the “MCH-2R Activation %” value on human MCH-R2 (Table 1) is reported as 36%. Further, on human MCH-R2, the “selective activity at MCH-2R over MCH-1R” value is on record as “selectively active”. Also, the pIC50 on human MCH-1R [2] is less than 6.00.

Regarding `CSCC[C@@H]1NC(=O)[C@@H](NC(=O)[C@H](CCCNC(=N)N)NC(=O)[C@H](CC(C)C)NC(=O)[C@H](C)NC(=O)[C@H](CC(=O)O)NC(=O)[C@H](Cc2ccccc2)NC(=O)[C@@H](N)CC(=O)O)CSSC[C@@H](C(=O)N[C@@H](Cc2c[nH]c3ccccc23)C(=O)N[C@@H](CCC(N)=O)C(=O)N[C@H](C(=O)O)C(C)C)NC(=O)[C@@H]2CCCN2C(=O)[C@H](CCCNC(=N)N)NC(=O)[C@H](Cc2ccc(O)cc2)NC(=O)[C@H](C(C)C)NC(=O)[C@H](CCCNC(=N)N)NC(=O)CNC(=O)[C@H](CC(C)C)NC1=O` [compound 44] (H-DFDALRCMLGRVYRPCWQV-OH; disulfide 7-16; N-terminus and C-terminus assumed), the “MCH-1R Activation %” value on human MCH-1R [1] (Table 3) is reported as 97%. Further, the “MCH-2R Activation %” value on human MCH-R2 (Table 3) is reported as 100%. The compound further gave a pIC50 on human MCH-1R [2] of 9.30.
